A short description of data set [1]: Oligomer folding by circular dichroism. Conditions: KCl, 25° C., 20 mM Li3PO4.
The subject of data set [2] is Junin virus.
Data set [3] relates to Macrophages. Format: cell-based, human. As to the method:
(§1) In other experiments of the effect of T30177 on the viability of primary human PBMCs, PBLs and macrophages was determined using the trypan blue dye exclusion technique. Griffiths, B., IRL Press, p. 48 (1992), or by measuring the degree of [^3H]thymidine or [^3]leucine uptake in these cells (McGrath, M. S., et al. Proc. Natl. Acad. Sci. USA 86:2844-2848 (1989)).
(§2) Cytotoxicity Assays. The cytotoxicity of T30177 was determined using several different cell lines and primary human cells as described above. The cytotoxicity profile obtained for log phase growing cells was variable depending upon the cell line used, while the slower growing PBMCs, PBLs, and macrophages all tolerated the compound at concentrations exceeding 100 μM as monitored using the trypan blue exclusion, [^3H]thymidine uptake, or [^3H]leucine uptake techniques.

In data set [4] the test system is PBLs. Format: cell-based, human. As to the method: as §1, §2
Data set [5] has as its system PBMC. The class given is cell-based, human. As to the method:
as §1, §2

Data set [6] relates to Vesicular Stomatitis virus.
The nature of data set [7]: Thermal denaturation of oligomer fold (UV, Tm). Format: physicochemical.
Data set [8] has as its target T1, FIV integrase (Feline immunodeficiency virus, UniProt P16088).
T1 construct: Purified recombinant wild-type FIV and SIV integrases were generous gifts; purchased gift of Dr. S. Chow (UCLA) (not bought)
The data set can be described thus: FIV integrase 3′-processing assay. The class given is biochemical.

Data set [9] has as its system HIV-1SKI. Nature of the data set: Single cycle analysis of HIV-1 cDNA, CEM-SS cells. The class given is cell-based. The following applies: 10- to 100-fold over IC50.
Details of data set [10]: species or system cynomolgus monkeys. Conditions: cynomolgus monkey, in vivo. As to the method: (§3) Hematology and coagulation parameters. Hematology and coagulation parameters were determined 9-11 days prior to the start of the study, just prior to administering doses 1 (day 1) and 12 (day 23), five minutes after dosing (coagulation only), 30 minutes and 4 hours following dosing, one day after the 12th dose (day 24), and in recovery monkeys at sacrifice (day 37). The following were determined: red blood cell count and morphology, total and differential while blood cells, hemoglobin, hematocrit, prothrombin time, fibrinogen, mean cell hemoglobin, mean corpuscular volume, mean corpuscular hemoglobin concentration, platelet count, activate partial thromboplastin time, and D-dime. Hematology was determined at Sierra Nevada Laboratories (Reno, Nev.).

The subject of data set [11] is HIV-1IIIB. The data set can be described thus: Long term suppression assay, MT-4 cells. Format: cell-based.
Details of data set [12]: species or system cynomolgus monkeys. Conditions: cynomolgus monkey, in vivo. The procedure:
Dosing. Twelve experimentally naive cynomolgus monkeys were assigned to four groups of three animals each. Prior to dosing, each animal was lightly sedated with a combination of ketamine (1 0 mg/kg) and diazepam (0.5 mg/kg), and a catheter was introduced into the femoral artery for recording central arterial pressure. Monkeys were given a single intravenous infusion of 5, 20, or 50 mg AR177/kg or saline over ten minutes through a cephalic vein catheter using a Harvard infusion pump. […] The concentration of AR177 in dosing solutions was confirmed post experiment by absorbance at 280 nm on a spectrophotometer. […] Electrocardiograms (ECGs), central pressure, and heart rate were recorded continuously for 120 minutes following the initiation of doing. […]
Serum chemistry parameters. The following were determined: sodium, potassium, chloride, carbon dioxide, total bilirubin, direct bilirubin, indirect bilirubin, alkaline phosphatase, lactate dehydrogenase, aspartate aminotransferase, alanine aminotransferase, gamma-glutamyltransferase, calcium, phosphorus, glucose, urea nitrogen, creatinine, uric acid total protein, albumin, globulin, cholesterol and triglycerides. The samples were analyzed at Sierra Nevada Laboratories (Reno, Nev.).
This is another data set of the same source.

Data set [13] relates to Yellow Fever virus.
Data set [14] deals with T2, SIV integrase (Simian immunodeficiency virus, UniProt P05896).
T2 construct: Purified recombinant wild-type FIV and SIV integrases were generous gifts; purchased gift of Dr. R. Craigie (NIDDK) (not bought)
T2 sequence (P05896 1156-1448): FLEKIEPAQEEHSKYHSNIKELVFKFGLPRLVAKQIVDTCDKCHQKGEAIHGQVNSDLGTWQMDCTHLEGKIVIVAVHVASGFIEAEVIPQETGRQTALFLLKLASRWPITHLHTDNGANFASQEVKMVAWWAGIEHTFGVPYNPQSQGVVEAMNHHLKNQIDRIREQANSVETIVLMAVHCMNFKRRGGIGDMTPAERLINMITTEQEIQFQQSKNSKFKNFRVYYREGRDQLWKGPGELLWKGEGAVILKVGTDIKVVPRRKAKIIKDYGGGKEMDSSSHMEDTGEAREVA
Nature of the data set: SIV integrase 3′-processing assay. The class given is biochemical.

Data set [15] has as its system HSV-1.
Data set [16] in a line: Repeat-dose monkey study: coagulation parameters (aPTT). The class given is in vivo, cynomolgus monkeys. The procedure: as §3
Data set [17] has as its system HIV-1. The following applies: 3.0 mg/kg every other day, 14-day treatment, three patients.
Data set [18] relates to Semliki forest virus.
Data set [19] deals with CD4- and gp120-mediated cell fusion. The data set can be described thus: cells. The class given is cell-based.
For data set [20], the system named is Tacaribe.

pIC50: −log10 of the molar value. “Also recorded” adds a separate entry of the source. Read-outs that look alike come from different tables or passages of the source. Marks after values point to notes of the source that are not given here. Where only a bound is given, the exact number is not on record here.

With “5′-gtggtgggtgggtgggt-3′ (GTGGTGGGTGGGTGGGT; phosphorothioate termini, further chemistry not given here) [T30177, pPT version of parent compound I100-15, 17 mer]”, in [1], the “midpoint of K+ induced folding transition (CD, 264 nm)” value is on record as 0.15 mM. The values for the IC50 virus-induced cytopathogenicity in data set [2] (Junin virus), in data set [6] (Vesicular Stomatitis virus) and in data set [13] (Yellow Fever virus) were above 50 µg/mL, above 200 µg/mL and above 200 µg/mL, respectively. The “MCC minimum concentration altering normal cell morphology” value is reported as above 50 μg/mL in [2] (Junin virus assay), 400 μg/mL in [6] (Vesicular Stomatitis virus assay) and above 200 μg/mL in data set [13] (Yellow Fever virus assay). The 50% cytotoxic concentration (CC50) in data set [3], in data set [4] and in [5] was above 100 µM each time. Moreover, the TC25 in data set [3], in [4] and in data set [5] was above 100 µM in each case. Also, the TC95 in data set [3], in data set [4] and in data set [5] was above 100 µM in each case. Further, the midpoint of thermal melting (Tm) (in general, the temperature at the midpoint of the melting transition) in [7] (1 mM KCl) is 53 °C; in data set [7] (10 mM KCl, calculated from linear fit), 70* ° C; in data set [7] (180 mM KCl, calculated from linear fit), 92* ° C. Further, the results for the pIC50 in [8] and in data set [14] were 6.76 and 6.38, respectively. In data set [9], the “viral cDNA 12 hours post-infection, drug added at time of infection” value is listed as “viral cDNA was detected”. Besides, the eosinophils entry in data set [10] was “acute decrease in eosinophils”. For the same substance, the lymphocytes result in data set [10] is “acute and transient increase in lymphocytes”. Moreover, the “viral DNA (PCR) 11 days after removal of drug” value in data set [11] is recorded as “unable to detect the presence of viral DNA; also recorded: no detectable viral cDNA”. Further, the “protection of treated cells from reinfection with HIV-1IIIB” value in [11] (100-fold over IC50, 4 days) is given as “no protection of cells from the second round of viral infection”. Also, the serum chemistry parameters entry in data set [12] is “no changes”.

For the substance “5′-gtggtgggtgggtgggt-3′ [T30177] (GTGGTGGGTGGGTGGGT; phosphorothioate termini, further chemistry not given here)”, the IC50 virus-induced cytopathogenicity was above 200 µg/mL in data set [15] (HSV-1 (KOS)); above 200 µg/mL in [15] (HSV-1 TK (B2006)); above 200 µg/mL in data set [15] (HSV-1 TK (VMW1837)); above 200 µg/mL in data set [18] (Semliki forest virus); above 50 µg/mL in data set [20]. The “MCC minimum concentration altering normal cell morphology” value was 400 μg/mL in data set [15] (HSV-1 (KOS) assay); 400 μg/mL in [15] (HSV-1 TK (B2006) assay); 400 μg/mL in [15] (HSV-1 TK (VMW1837) assay); “≧200 μg/mL” in data set [18] (Semliki forest virus assay); above 50 μg/mL in data set [20]. For the same substance, the “anticoagulation activity (aPTT)” value in data set [16] (2.5 mg/kg) is listed as “no anticoagulation activity”. Also, the “mean aPTT relative to pre-dose” value in [16] (10 mg/kg, 5 minutes post-dosing, doses 1 and 12) is listed as “approximately twice the pre-dose value”. Also, the “mean aPTT” value in data set [16] (40 mg/kg, five minutes after dosing) was “exceeded the upper limit of the assay”. Besides, the “no effect plasma AR177 concentration versus aPTT” value in data set [16] (cynomolgus monkey, in vivo) is 60-100 μg AR177/mL. Further, the “plasma AR177 concentration at doubling of aPTT” value in data set [16] (cynomolgus monkey, in vivo) is reported as 100-200 μg AR177/mL. The “plasma AR177 concentration at tripling of aPTT” value in data set [16] (cynomolgus monkey, in vivo) is listed as 220-300 μg AR177/mL. Besides, the “viral load (plasma HIV-1 RNA)” value in data set [17] is “viral load was significantly reduced”. The “fusion IC50 relative to virus infection assay IC50” value in [19] was “approximately 100 fold”. The pIC50 – broadly, the IC50 on a negative log10 scale, so that one unit is a factor of ten – in data set [19] (read-out: IC50 CD4- and gp120-mediated cell fusion) was 6.00.

The record behind these values is patent US6355785B1, “Guanosine-rich oligonucleotide integrase inhibitors” (Aronex Pharmaceuticals, Inc., priority 1993, dated 2002).
